The subject of data set [1] is catalase (CAT) activity in RKO cells. As to the kind of experiment: CAT activity in RKO cells. Type of data set: cell-based. The following applies: 10 µg/mL, 24 h. As to the method:
(§1) In addition, two colorectal cancer cell lines, RKO and SW1116, were distinguished based on a different response to the EB5 derivative. To perform subsequent analyses, the selected CRC lines were treated with EB5 derivative at a concentration of 10 µg/mL for 24 h. Untreated cells were used as a negative control. Three biological replicates were performed.
(§2) To examine the antioxidant capacity of the cells as well as lipid peroxidation and to evaluate the activity of antioxidant enzymes, the cells were suspended in lysis buffer (containing 4 mg of […]™ Protease Inhibitor Cocktail and 10 µL of Phosphatase Inhibitor Cocktail 3 in 1 mL of PBS; Sigma-Aldrich, St Louis, MO, USA). Subsequently, the cells were placed in liquid nitrogen for 30 min, followed by storage at −80 °C until further analysis.
(§3) Superoxide dismutase (SOD), glutathione peroxidase (GPx) and catalase (CAT) activities were assessed using a commercially purchased Cayman Chemicals Superoxide Dismutase Assay Kit, a Cayman Chemicals Glutathione Peroxidase Assay Kit and a Catalase Assay Kit (Cayman Chemicals, Ann Arbor, MI, USA), respectively, according to the manufacturer’s recommendations and based on a previous study. […] The level of change in absorbance was measured spectrophotometrically at the appropriate wavelength for the assay, i.e., for SOD in the range 440–460 nm, for GPx at 340 nm and for CAT at 540 nm.

The subject of data set [2] is RKO cells. As to the kind of experiment: Lipid peroxidation, MDA assay, RKO. It is filed as cell-based. The following applies: 10 µg/mL, 24 h. The procedure:
(§4) In addition, two colorectal cancer cell lines, RKO and SW1116, were distinguished based on a different response to the EB5 derivative. […] Untreated cells were used as a negative control. Three biological replicates were performed. To examine the antioxidant capacity of the cells as well as lipid peroxidation and to evaluate the activity of antioxidant enzymes, the cells were suspended in lysis buffer (containing 4 mg of […]™ Protease Inhibitor Cocktail and 10 µL of Phosphatase Inhibitor Cocktail 3 in 1 mL of PBS; Sigma-Aldrich, St Louis, MO, USA). Subsequently, the cells were placed in liquid nitrogen for 30 min, followed by storage at −80 °C until further analysis. To assess the level of lipid peroxidation, the Malondialdehyde Assay Kit (Aoxre BioSciences, Burlingame, CA, USA) was used, according to the manufacturer’s recommendations.

Data set [3] relates to HCT116 cells. As to the kind of experiment: MTT cytotoxicity assay, HCT116. Type of data set: cell-based. Conditions: Homo sapiens; HCT 116, MTT, 24 h; read-out: IC50 value. The text has this:
(§5) Control cells were not treated with the compounds.

Data set [4] has as its system catalase (CAT) activity in SW1116 cells. Briefly: CAT activity in SW1116 cells. Conditions: SW1116, 10 µg/mL, 24 h. Type of data set: cell-based. The procedure:
as §1, §2
Superoxide dismutase (SOD), glutathione peroxidase (GPx) and catalase (CAT) activities were assessed using a commercially purchased Cayman Chemicals Superoxide Dismutase Assay Kit, a Cayman Chemicals Glutathione Peroxidase Assay Kit and a Catalase Assay Kit (Cayman Chemicals, Ann Arbor, MI, USA), respectively, according to the manufacturer’s recommendations and based on a previous study. The cell supernatant from previously prepared cell lysates of the tested lines provided material for further analyses. The level of change in absorbance was measured spectrophotometrically at the appropriate wavelength for the assay, i.e., for SOD in the range 440–460 nm, for GPx at 340 nm and for CAT at 540 nm.

The subject of data set [5] is RKO cells. As to the kind of experiment: MTT cytotoxicity assay, RKO. The following applies: Homo sapiens, 24 h. The procedure: (§6) Six colorectal cancer cell lines, RKO, HT29, DLD-1, HCT116, Caco2 and SW1116 (CRL-2577, HTB-38, CCL-221, CCL-247, HTB-37, CCL-233; ATCC, Manassas, VA, USA, respectively, for CRC lines), and one normal cell line, CCD-841CoN (CRL-1790, ATCC, USA), were routinely cultured at 37 °C in a 5% CO2 incubator (Direct Heat CO2; Thermo Scientific, Waltham, MA, USA) in cell line-appropriate culture medium according to the manufacturer’s recommendations. Eagle’s minimum essential medium (EMEM) was used to culture RKO, Caco2 and CCD-841CoN lines, while McCoy’s 5A medium was used for HT29 and HCT116 lines. DLD-1 cells were grown in RPMI-1640 medium, whereas SW1116 cells were maintained in Leibovitz’s L-15 medium. All culture media were supplemented with 10% fetal bovine serum (EuroClone, Milan, Italy), and gentamycin at the concentration […] (BioWhittaker, Lonza, Basel, Switzerland) was also applied to prevent culture contamination.
(§7) For this purpose, cells were exposed to the test compound for 24 h at concentrations of 0.1, 1, 10, 20, 50 and 100 μg/mL. Control cells were not treated with the compounds. MTT (0.25 mg/mL) was then added to the cultures and incubated for 3 h at 37 °C. After a time, the cells were washed with phosphate buffered saline (PBS), and next, formazan dye was dissolved in 100 μL of dimethyl sulfoxide (Sigma-Aldrich, St Louis, MO, USA). Absorbance was measured at 540 nm using a Wallac 1420 VICTOR microplate reader (PerkinElmer, Waltham, MA, USA).

The subject of data set [6] is Caco2 cells. Briefly: MTT cytotoxicity assay, Caco2. Type of data set: cell-based. The following applies: Homo sapiens, Caco-2; Caco2, MTT, 24 h; read-out: IC50 value.
The subject of data set [7] is SW1116 cells. As to the kind of experiment: MTT cytotoxicity assay, SW1116. The following applies: Homo sapiens, SW 1116, 24 h. The procedure: as §6, §7
Data set [8] relates to DLD-1 cells. Briefly: MTT cytotoxicity assay, DLD-1. Type of data set: cell-based. Conditions: Homo sapiens; DLD-1, MTT, 24 h; read-out: IC50 value.
Excerpt: as §5

The subject of data set [9] is HT29 cells. As to the kind of experiment: MTT cytotoxicity assay, HT29. The following applies: Homo sapiens, HT-29; HT29, MTT, 24 h; read-out: IC50 value. It is filed as cell-based.
Excerpt: as §5

Data set [10] is described as follows: in vitro. The following applies: human. Type of data set: cell-based.
Excerpt: as §5

The subject of data set [11] is CCD-841CoN cells. Briefly: cells. It is filed as cell-based. Conditions: Homo sapiens; CCD-841CoN normal cells, MTT, 24 h; read-out: IC50 value.
Excerpt: as §5

Data set [12] deals with SW1116 cells. As to the kind of experiment: Lipid peroxidation, MDA assay, SW1116. It is filed as cell-based. Conditions: SW1116, 10 µg/mL, 24 h. As to the method: as §4
For data set [13], the system named is superoxide dismutase (SOD) activity in RKO cells. Briefly: SOD activity in RKO cells. It is filed as cell-based. The following applies: 10 µg/mL, 24 h. As to the method: as §1, §2, §3
In data set [14] the test system is CAT gene expression in RKO cells. As to the kind of experiment: CAT mRNA, real-time RT-qPCR, RKO. It is filed as cell-based. Conditions: 10 µg/mL, 24 h. As to the method: as §1
(§8) Total RNA from treated cells was extracted using TRIzol reagent (Sigma-Aldrich, St Louis, MO, USA) according to the manufacturer’s instructions. The obtained RNA was assessed qualitatively and quantitatively by agarose gel electrophoresis and by spectrophotometric measurement using MaestroNano MN-913 (MaestroGen Inc., Las Vegas, NV, USA), respectively. The obtained extracts provided the starting material for the assessment of genes changes at the mRNA level.
(§9) Changes in the expression of SOD1, SOD2, CAT and GPX3 genes involved in antioxidant systems were assessed by real-time RT-qPCR using a LightCycler® 480 System apparatus (Roche, Basel, Switzerland). A commercially purchased GoTaq® 1-Step RT-qPCR System (Promega, Madison, WI, USA) was used, while the primers and reaction conditions were the same as in the previous study performed by Kruszniewska-Rajs et al.. GAPDH was used as the reference gene. The mRNA expression level studied genes were then determined by the 2^−ΔCt relative quantification method. All samples were tested in triplicate. The specificity of the reaction was evaluated based on the melting temperature curve, as well as using electrophoresis of the amplification products in a 2% agarose gel.

The test system of data set [15] is SOD2 gene expression in RKO cells. As to the kind of experiment: SOD2 mRNA, real-time RT-qPCR, RKO. The following applies: 10 µg/mL, 24 h. It is filed as cell-based. The procedure:
as §1, §8, §9

Data set [16] concerns SOD2 gene expression in SW1116 cells. As to the kind of experiment: SOD2 mRNA, real-time RT-qPCR, SW1116. It is filed as cell-based. The following applies: SW1116, 10 µg/mL, 24 h. The procedure: as §1, §8, §9

The structures appear in SMILES notation. Values joined by “and” are separate entries in the source; they are usually repeats but may differ in a detail not shown here. Equal values may be shown once.

For the molecule `C#CC(=O)OC[C@]12CC[C@@H](C(=C)C)[C@@H]1[C@H]1CC[C@@H]3[C@@]4(C)CC[C@H](O)C(C)(C)[C@@H]4CC[C@@]3(C)[C@]1(C)CC2` [EB5, 28-propynylobetulin], in [1], the “CAT activity compared to the betulin-treated cells” value is on record as “slight decrease”. The “increase in MDA levels compared to the control cells” value in data set [2] was “about 98.0%”. Besides, the IC50 in data set [3] was 16.7 µg/mL and 33.7 µM; in data set [5] (read-out: IC50 value), 12.2 µg/mL and 24.6 µM; in [6], 16.9 µg/mL and 34.2 µM; in data set [7] (read-out: IC50 value), 34.4 µg/mL and 69.5 µM; in data set [8], 11.1 µg/mL and 22.4 µM; in [9] it was 8.25 µg/mL and 16.7 µM. For the same molecule, the 50% inhibitory concentration (IC50) in [11] was > 100 µg/mL and > 202 µM. In data set [4], the “catalase activity compared to the control” value is “did not cause changes”. Also, the viability at 10 µg/mL in [5] and in data set [7] was at least 50% in each case. In [10], this molecule gave a viability at 24 h, 100 μg/mL of at least 50%. Further, the “MDA level compared to the control” value in data set [12] is given as “did not cause changes”. Also, in [13], the “SOD activity compared to cells treated with betulin” value is “modest increase”. The “CAT gene expression vs. 5FU” value in data set [14] is “significant increase in expression”. For the same molecule, the “CAT gene expression vs. cisplatin” value in [14] was “significant decrease in expression”. In addition, the “SOD2 gene expression vs. cisplatin” value in data set [15] was “significant decrease in SOD2 gene expression”; in data set [16], “Decreased SOD2 gene expression”. In [16], the “SOD2 gene expression vs. 5FU” value is recorded as “Decreased SOD2 gene expression”.
